The source of these data is patent US4769386A, “Imidazolylthioalkenoic acids and -alkenols and leukotriene antagonistic composition containing them” (Smithkline Beckman Corporation, priority 1986, dated 1988).

Each structure is given as a SMILES string. Structures can show the parent of a compound that is named as a salt.

The target of the first test is T1, leukotriene induced contraction of guinea pig tracheal tissues (LTD4) (Cavia porcellus, UniProt Q2NNR5).
T1 construct: from tissue; host or cells: guinea pig (adult male albino Hartley strain) tracheal spiral strips
T1 sequence (Q2NNR5 1-340): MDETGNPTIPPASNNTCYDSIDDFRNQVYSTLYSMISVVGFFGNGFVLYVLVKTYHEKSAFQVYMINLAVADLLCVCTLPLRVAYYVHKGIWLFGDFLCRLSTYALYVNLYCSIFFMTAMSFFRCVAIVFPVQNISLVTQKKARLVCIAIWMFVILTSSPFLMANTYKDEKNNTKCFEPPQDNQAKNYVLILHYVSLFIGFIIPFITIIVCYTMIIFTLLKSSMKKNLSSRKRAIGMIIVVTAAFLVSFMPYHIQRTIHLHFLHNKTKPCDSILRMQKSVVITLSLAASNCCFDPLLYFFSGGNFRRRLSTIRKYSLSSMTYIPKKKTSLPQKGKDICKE
Put plainly: leukotriene (LTD4) induced contraction of guinea pig tracheal spiral strips in vitro, leukotriene antagonist activity. Conditions: antagonism of LTD4 contraction, guinea pig trachea; EC30 based (30% of carbachol contraction); meclofenamic acid 1 μM; test compound 30 min pretreatment; KB = concentration of test compound/(X-1); 30 min. The class given is cell-based, guinea pig (adult male albino Hartley strain). How it is done:
The leukotriene antagonist activity of the compounds of this invention is measured by the ability of the compounds to inhibit the leukotriene induced contraction of guinea pig tracheal tissues in vitro. The following methodology was employed:
In vitro: Guinea pig (adult male albino Hartley strain) tracheal spiral strips of approximate dimensions 2 to 3 mm cross-sectional width and 3.5 cm length were bathed in modified Krebs buffer in jacketed 10 ml tissue bath and continuously aerated with 95% O2 /5% CO2. The tissues were connected via silk suture to force displacement transducers for recording isometric tension. The tissues were equilibrated for 1 hr., pretreated for 15 minutes with meclofenamic acid (1 μM) to remove intrinsic prostaglandin responses, and then pretreated for an additional 30 minutes with either the test compound or vehicle control. A cumulative concentration-response curve for LTD4 on triplicate tissues was generated by successive increases in the bath concentration of the LTD4. In order to minimize intertissue variability, the contractions elicited by LTD4 were standardized as a percentage of the maximum response obtained to a reference agonist, carbachol […].
Calculations: The averages of the triplicate LTD4 concentration-response curves both in the presence and absence of the test compound were plotted on log graph paper. The concentration of LTD4 needed to elicit 30% of the contraction elicited by carbachol was measured and defined as the EC30. The -log KB value for the test compound was determined by the following equations:
2. KB = concentration of test compound/(X-1)
In the case of `CCCCCCCCCCCC/C=C\C(Sc1nc(C)c(C(=O)O)n1C)C(O)CCC(=O)O` (single isomer, unassigned) [Formula (III), R1 ^(a) CH3, R2 --CO2 H, R3 CH3 (first isomer line), 4-Hydroxy-5-(1,4-dimethyl-5-carboxy-2-imidazolylthio)-6(Z)-nonadecenoic acid], the “In Vitro -Log KB” value is 6.9. Still for that read-out and setting: with `CCCCCCCCCCCC/C=C\C(Sc1nc(C)c(C(=O)O)n1C)C(O)CCC(=O)O` (single isomer, unassigned) [Formula (III), R1 ^(a) CH3, R2 --CO2 H, R3 CH3 (second isomer line), 4-Hydroxy-5-(1,4-dimethyl-5-carboxy-2-imidazolylthio)-6(Z)-nonadecenoic acid] the figure was 6.8.

The test is the same for the next values; noted with them: antagonism of LTD4 contraction, guinea pig trachea; EC30 based (30% of carbachol contraction); meclofenamic acid 1 μM; test compound 30 min pretreatment; KB = concentration of test compound/(X-1); read-out: In Vitro -Log KB (converted).
In general, Kb refers to the equilibrium dissociation constant of an antagonist, usually derived from a functional assay. In the case of `CCCCCCCCCCCC/C=C\[C@H](Sc1nc(C)c(C(=O)O)n1C)[C@H](O)CCC(=O)O` (relative stereo) [4-Hydroxy-5-(1,4-dimethyl-5-carboxy-2-imidazolylthio)-6(Z)-nonadecenoic acid], the antagonist dissociation constant (Kb) was 126 nM. For the molecule `CCCCCCCCCCCC/C=C\[C@H](Sc1nc(CC(=O)O)cn1C)[C@H](O)CCC(=O)O` (relative stereo) [4-Hydroxy-5-(1-methyl-4-carboxymethyl-2-imidazolylthio)-6(Z)-nonadecenoic acid], the Kb was 794 nM. Same read-out and setting: with `CCCCCCCCCCCC/C=C\[C@H](Sc1nc(C)c(CC(N)=O)n1C)[C@H](O)CCC(=O)O` (relative stereo) [4-Hydroxy-5-(5-Aminocarbonylmethyl-1,4-dimethyl-2-imidazolylthio)-6(Z)-nonadecenoic Acid] the figure was 631 nM. On the same count and under the same terms, with `CCCCCCCCCCCC/C=C\[C@H](Sc1nc(CCC)c(C(=O)O)n1C)[C@H](O)CCC(=O)O` (relative stereo) [4-Hydroxy-5-(5-carboxy-1-methyl-4-propyl-2-imidazolylthio)-6(Z)-nonadecenoic Acid] the figure was 316 nM; with `CCCCCCCCCCCC/C=C\[C@H](Sc1nc(CC)c(C(=O)O)n1C)[C@H](O)CCC(=O)O` (relative stereo) [4-Hydroxy-5-(5-carboxy-4-ethyl-1-methyl-2-imidazolylthio)-6-(Z)-nonadecenoic Acid], 200 nM. The same measure, in the same setting: with `CCCCCCCCCCCC/C=C\[C@H](Sc1nc(C(C)C)c(C(=O)O)n1C)[C@H](O)CCC(=O)O` (relative stereo) [4-Hydroxy-5-(5-carboxy-4-isopropyl-1-methyl-2-imidazolylthio)-6(Z)-nonadecenoic Acid] the figure was 1260 nM; with `CCCCCCCCCCCC/C=C\[C@H](Sc1nc(C)c(CC(=O)O)n1C)[C@H](O)CCC(=O)O` (relative stereo) [4-Hydroxy-5-(5-carboxymethyl-1,4-dimethyl-2-imidazolylthio)-6(Z)-nonadecenoic Acid], 398 nM; with `CCCCCCCCCCCC/C=C\[C@H](Sc1nc(C)c(CCC(=O)O)n1C)[C@H](O)CCC(=O)O` (relative stereo) [4-Hydroxy-5-[5-(2-carboxyethyl)-1,4-dimethyl-2-imidazolylthio]-6(Z)-nonadecenoic Acid], 1260 nM. For the molecule `C=CCn1ccnc1S[C@@H](/C=C\CCCCCCCCCCCC)[C@H](O)CCC(=O)O` (relative stereo) [Formula (III), R1 CH2 =CHCH2, R2 H, R3 H, 4-Hydroxy-5-(1-allyl-2-imidazolylthio)-6(Z)-nonadecenoic acid], the antagonist equilibrium constant (Kb) was 5010 nM. For `CCCCCCCCCCCC/C=C\[C@H](Sc1nccn1CC)[C@H](O)CCC(=O)O` (relative stereo) [Formula (III), R1 CH3 CH2, R2 H, R3 H, 4-Hydroxy-5-(1-ethyl-2-imidazolylthio)-6(Z)-nonadecenoic acid, sodium salt], the Kb is 5010 nM. Still for that read-out and setting: with `CCCCCCCCCCCC/C=C\[C@H](Sc1ncc(C(=O)O)n1C)[C@H](O)CCC(=O)O` (relative stereo) [Formula (III), R1 CH3, R2 --CO2 H, R3 H, 4-Hydroxy-5-(1-methyl-5-carboxy-2-imidazolylthio)-6(Z)-nonadecenoic acid] the figure was 158 nM; with `CCCCCCCCCCCC/C=C\[C@H](Sc1ncc(C(N)=O)n1C)[C@H](O)CCC(=O)O` (relative stereo) [Formula (III), R1 CH3, R2 --CONH2, R3 H, 4-Hydroxy-5-(1-methyl-5-carboxamido-2-imidazolylthio)-6(Z)-nonadecenoic acid], 3980 nM; with `CCCCCCCCCCCC/C=C\[C@H](Sc1nc(C)c(C)n1C)[C@H](O)CCC(=O)O` (relative stereo) [Formula (III), R1 CH3, R2 CH3, R3 CH3, 4-Hydroxy-5-(1,4,5-trimethyl-2-imidazolylthio)-6(Z)-nonadecenoic acid], 2510 nM. The same measure, in the same setting: with `CCCCCCCCCCCC/C=C\[C@H](Sc1nccn1C)[C@H](O)CCC(=O)O` (relative stereo) [Formula (III), R1 CH3, R2 H, R3 H, 4-Hydroxy-5-(1-methyl-2-imidazolylthio)-6(Z)-nonadecenoic acid] the figure was 1260 nM. Still for that read-out and setting: under `CCCCCCCCCCCC/C=C\[C@H](Sc1nc(C(=O)O)c[nH]1)[C@H](O)CCC(=O)O` (relative stereo) [Formula (III), R1 H, R2 --CO2 H, R3 H, 4-Hydroxy-5-[4(5)-carboxy-2-imidazolylthio]-6(Z)-nonadecenoate acid] stands 2000 nM; under `CCCCCCCCCCCC/C=C\[C@H](Sc1nccn1C)[C@H](O)CCCC(=O)O` (relative stereo) [Formula (IV), R1 CH3, R2 H, R3 H, 5-Hydroxy-6-(1-methyl-2-imidazolylthio)-7(Z)-eicosenoic acid], 1000 nM; under `CCCCCCCCCCCCC#CC(Sc1nc(C)c(C(=O)O)n1C)C(O)CCC(=O)O` (stereo not drawn) [4-Hydroxy-5-(1,4-dimethyl-5-carboxy-2-imidazolylthio)-6-nonadecynoic acid], 1580 nM. As to `CCCCCCCCCCCC/C=C\C(CCCC(=O)O)Sc1ncc(C(=O)O)n1C` (stereo not drawn) [5-(1-methyl-5-carboxy-2-imidazolylthio)-6(Z)-nonadecenoic acid], the Kb was 316 nM. Regarding `CCCCCCCCCCCC/C=C\C(Sc1ncn(C)c1C(=O)O)C(O)CCC(=O)O` (stereo not drawn) [Formula (V), R4 CH3, R5 H, R6 --CO2 H, 4-Hydroxy-5-(1-methyl-5-carboxy-4-imidazolylthio)-6(Z)-nonadecenoic acid], the Kb is 200 nM.

Consider `CCCCCCCCCCCC/C=C\C(Sc1cn(C)cn1)C(O)CCC(=O)O` (stereo not drawn) [Formula (V), R4 ^(b) CH3, R5 H, R6 H, 4-Hydroxy-5-(1-methyl-4-imidazolylthio)-6(Z)-nonadecenoic acid, sodium salt], for which the Kb was 2000 nM.

Staying with this test, now noted: method as for the table (LTD4, guinea pig trachea); read-out: -log KB value (converted).
For the molecule `CC(C)=CCCCCCCCCC/C=C\C(Sc1nc(C)c(C(=O)O)n1C)C(O)CCC(=O)O` (stereo not drawn) [Example 25, 4-Hydroxy-5-(5-carboxy-1,4-dimethyl-2-imidazolylthio)-18-methyl-6(Z),17-nonadecadienoic Acid], the antagonist dissociation constant (Kb) was 31.6 nM.

As for `Cc1nc(SC(/C=C\CCCCCCCCc2ccccc2)C(O)CCC(=O)O)n(C)c1C(=O)O` (stereo not drawn) [Example 26, 4-Hydroxy-5-(5-carboxy-1,4-dimethyl-2-imidazolylthio)-15-phenyl-6(Z)-pentadecenoic Acid], the Kb is 251 nM.
